The source made the active and inactive calls.
Columns and labels:
Nonstructural protein 1 = Nonstructural protein 1 (Influenza A virus, UniProt Q194T2); type: functional, Influenza A virus (A/California/07/2009(H1N1))
[1] = target: Voltage-dependent T-type calcium channel subunit alpha-1H (Homo sapiens, UniProt O95180); type: functional;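 further: channel activity triggered by adding a high calcium stimulation buffer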
cells = type: functional
Cytochrome P450 2C9 = Cytochrome P450 2C9 (Homo sapiens, UniProt P11712)
[2] = target: FAD-linked sulfhydryl oxidase ALR (Homo sapiens, UniProt P55789); test: inhibitors of human ALR sulfhydryl oxidase, dose response, biochemical, H2O2 detection, luminescence, cherry-pick (AID 493248)
[3] = HepG2 cell cytotoxicity, dose response, cytotoxicity control, plate reader, cherry-pick, antagonist series (AID 743416); type: functional, cell-based
[4] = LGR2 antagonists, dose response, cell-based, HEK293, CRE-luciferase reporter, cherry pick, set 2 (AID 743343); type: functional;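 further: transfected cells were stimulated with diluted bursicon conditioned medium after compound addition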
[5] = MC4R antagonists, dose response, counter-screen for LGR2 antagonist project, cell-based, plate reader, cherry pick (AID 743444); type: functional;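 further: transfected HEK 293 cells stimulated with alpha-MSH peptide; potency of inhibitors of the alpha-MSH evoked signal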
BJ [6] = test: cytotoxicity toward BJ-TERT fibroblasts, dose response, cell-based, RAS-independent, luminescence (AID 1933); type: functional; settings: Homo sapiens
BJ [7] = test: cells; type: functional, cell-based; settings: Homo sapiens
BJ [8] = test: cytotoxicity toward BJ-TERT-LT-ST fibroblasts, dose response, cell-based, RAS-independent, luminescence (AID 1935); type: functional; settings: Homo sapiens;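 further: BJ fibroblasts immortalized with TERT plus LT and ST oncogenes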
[9] = cytotoxicity toward DRD oncogenic fibroblasts, dose response, cell-based, non-viral oncogenic, luminescence (AID 1934); type: functional; settings: Homo sapiens
[10] = Luminescence Cell-Based Dose Retest to Confirm Inhibitors of Cancer Stem Cells. [Related pubchem assays (depositor defined):AID2717, AID2721]; type: functional; settings: Homo sapiens
[11] = target: T1, Long-chain-fatty-acid--AMP ligase FadD28 (Mycobacterium tuberculosis, UniProt P9WQ59); test: Fluorescence polarization aasay to screen for inhibitors that compete for the binding of FadD28 to a bisubstrate Measured in Biochemical System Using Plate Reader - 2147-01_Inhibitor_Dose_CherryPick_Activity.; type: functional, Mycobacterium tuberculosis H37Rv
T1 sequence (P9WQ59 whole entry): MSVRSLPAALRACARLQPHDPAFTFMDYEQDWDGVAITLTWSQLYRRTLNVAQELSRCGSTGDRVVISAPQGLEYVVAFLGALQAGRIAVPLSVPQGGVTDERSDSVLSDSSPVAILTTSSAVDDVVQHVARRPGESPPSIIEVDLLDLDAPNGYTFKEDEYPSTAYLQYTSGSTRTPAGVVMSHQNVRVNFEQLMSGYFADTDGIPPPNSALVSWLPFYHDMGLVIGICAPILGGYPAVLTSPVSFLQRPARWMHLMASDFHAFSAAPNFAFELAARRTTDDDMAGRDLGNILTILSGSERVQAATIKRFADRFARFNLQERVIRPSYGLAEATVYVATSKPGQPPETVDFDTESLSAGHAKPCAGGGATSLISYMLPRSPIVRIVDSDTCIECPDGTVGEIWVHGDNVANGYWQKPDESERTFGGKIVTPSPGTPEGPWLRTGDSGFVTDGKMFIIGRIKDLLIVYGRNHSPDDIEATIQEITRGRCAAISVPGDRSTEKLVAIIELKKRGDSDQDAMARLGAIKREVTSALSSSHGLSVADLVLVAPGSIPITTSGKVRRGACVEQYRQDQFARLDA

[12] = inhibitors of HIV Env-driven cell fusion, dose response, cherry-pick (AID 652057); type: functional, cell-based
[13] = A549 cell cytotoxicity, dose response, cytotoxicity control, plate reader, cherry-pick, antagonist series (AID 743412); type: functional, cell-based
Paired box protein Pax-8 = Paired box protein Pax-8 (Homo sapiens, UniProt Q06710); test: inhibitors of PAX8-driven TPO luciferase reporter, dose response, RMG-I cells, cherry-pick (AID 687027); type: functional, cell-based;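 further: luciferase reporter driven by Pax8 target thyroperoxidase promoter measured by SteadyGlo luminescence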
P388/ADR = test: cells; type: functional; settings: Mus musculus
SN12K1 = test: cells; type: functional; settings: Homo sapiens
P388 = test: cells; type: functional; settings: Mus musculus
[14] = ZM109 Env clade C HIV-1 fusion inhibitors, dose response, HeLa effector, CEM target cells, luciferase, cherry-pick (AID 652058); type: functional, cell-based

Chain of Voltage-dependent T-type calcium channel subunit alpha-1H (O95180 whole entry): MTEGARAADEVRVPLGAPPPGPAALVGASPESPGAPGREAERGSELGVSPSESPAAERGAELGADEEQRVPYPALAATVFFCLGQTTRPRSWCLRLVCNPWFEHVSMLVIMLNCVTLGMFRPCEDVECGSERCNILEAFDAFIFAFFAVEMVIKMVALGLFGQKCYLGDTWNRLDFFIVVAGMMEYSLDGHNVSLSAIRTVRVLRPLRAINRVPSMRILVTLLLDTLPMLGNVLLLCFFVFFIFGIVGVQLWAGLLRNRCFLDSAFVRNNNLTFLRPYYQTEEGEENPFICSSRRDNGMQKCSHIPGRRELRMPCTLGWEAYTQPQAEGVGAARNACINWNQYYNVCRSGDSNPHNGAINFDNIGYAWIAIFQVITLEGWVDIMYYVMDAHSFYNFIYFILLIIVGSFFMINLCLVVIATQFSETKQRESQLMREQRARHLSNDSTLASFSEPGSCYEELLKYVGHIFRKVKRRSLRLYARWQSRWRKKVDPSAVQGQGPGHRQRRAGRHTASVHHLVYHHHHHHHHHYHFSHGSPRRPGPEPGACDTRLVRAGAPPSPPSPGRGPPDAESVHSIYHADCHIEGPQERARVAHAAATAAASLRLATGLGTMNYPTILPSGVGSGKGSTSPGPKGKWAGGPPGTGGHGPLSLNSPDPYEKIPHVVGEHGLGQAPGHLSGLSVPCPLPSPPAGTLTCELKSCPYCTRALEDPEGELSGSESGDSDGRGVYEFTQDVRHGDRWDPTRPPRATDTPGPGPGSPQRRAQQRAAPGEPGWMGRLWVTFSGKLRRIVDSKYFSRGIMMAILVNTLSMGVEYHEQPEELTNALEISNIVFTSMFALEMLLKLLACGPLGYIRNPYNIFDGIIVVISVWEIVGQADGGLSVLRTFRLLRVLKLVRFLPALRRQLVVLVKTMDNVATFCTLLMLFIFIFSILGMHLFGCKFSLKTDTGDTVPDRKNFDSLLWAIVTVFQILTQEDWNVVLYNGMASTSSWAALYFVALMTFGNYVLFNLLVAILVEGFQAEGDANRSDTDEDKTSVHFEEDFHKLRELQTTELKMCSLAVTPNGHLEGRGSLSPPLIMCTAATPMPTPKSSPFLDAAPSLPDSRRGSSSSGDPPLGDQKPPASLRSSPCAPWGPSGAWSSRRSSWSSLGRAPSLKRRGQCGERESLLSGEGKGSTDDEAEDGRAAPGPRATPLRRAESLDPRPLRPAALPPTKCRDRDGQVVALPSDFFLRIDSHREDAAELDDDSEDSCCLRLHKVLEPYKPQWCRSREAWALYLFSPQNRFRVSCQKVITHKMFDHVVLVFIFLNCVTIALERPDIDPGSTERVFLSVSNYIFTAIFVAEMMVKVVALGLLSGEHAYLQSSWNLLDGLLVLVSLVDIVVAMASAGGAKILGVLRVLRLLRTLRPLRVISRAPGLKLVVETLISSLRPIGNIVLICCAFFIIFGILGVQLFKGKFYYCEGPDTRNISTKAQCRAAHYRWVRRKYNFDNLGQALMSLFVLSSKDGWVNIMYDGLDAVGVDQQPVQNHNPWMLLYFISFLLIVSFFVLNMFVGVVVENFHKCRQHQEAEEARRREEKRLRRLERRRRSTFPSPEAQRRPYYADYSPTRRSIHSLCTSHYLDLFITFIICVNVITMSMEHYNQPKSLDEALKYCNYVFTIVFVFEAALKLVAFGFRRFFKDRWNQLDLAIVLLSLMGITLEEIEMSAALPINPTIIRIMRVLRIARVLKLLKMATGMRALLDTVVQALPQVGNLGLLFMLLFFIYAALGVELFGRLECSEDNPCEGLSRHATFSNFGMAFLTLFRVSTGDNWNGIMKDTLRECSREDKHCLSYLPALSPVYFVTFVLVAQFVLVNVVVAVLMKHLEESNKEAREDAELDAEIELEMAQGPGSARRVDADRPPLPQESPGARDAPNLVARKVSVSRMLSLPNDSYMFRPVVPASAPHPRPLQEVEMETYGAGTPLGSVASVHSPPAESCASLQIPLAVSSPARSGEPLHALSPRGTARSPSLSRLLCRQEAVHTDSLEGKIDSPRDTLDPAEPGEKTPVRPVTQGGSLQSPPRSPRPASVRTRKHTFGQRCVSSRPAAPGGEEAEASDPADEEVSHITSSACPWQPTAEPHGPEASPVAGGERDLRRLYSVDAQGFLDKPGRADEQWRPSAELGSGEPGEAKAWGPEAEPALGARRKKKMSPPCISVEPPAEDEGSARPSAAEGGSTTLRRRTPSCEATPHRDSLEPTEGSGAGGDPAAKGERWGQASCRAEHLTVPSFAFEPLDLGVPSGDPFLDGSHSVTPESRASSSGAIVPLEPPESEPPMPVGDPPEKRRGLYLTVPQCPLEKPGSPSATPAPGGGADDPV
Chain of Nonstructural protein 1 (Q194T2 whole entry): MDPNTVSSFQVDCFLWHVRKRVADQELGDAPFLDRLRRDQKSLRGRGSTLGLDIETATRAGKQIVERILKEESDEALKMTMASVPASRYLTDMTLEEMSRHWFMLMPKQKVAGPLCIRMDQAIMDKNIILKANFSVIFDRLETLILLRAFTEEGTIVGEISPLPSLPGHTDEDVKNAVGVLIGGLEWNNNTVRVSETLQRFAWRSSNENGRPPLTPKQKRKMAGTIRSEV
Chain of Paired box protein Pax-8 (Q06710 whole entry): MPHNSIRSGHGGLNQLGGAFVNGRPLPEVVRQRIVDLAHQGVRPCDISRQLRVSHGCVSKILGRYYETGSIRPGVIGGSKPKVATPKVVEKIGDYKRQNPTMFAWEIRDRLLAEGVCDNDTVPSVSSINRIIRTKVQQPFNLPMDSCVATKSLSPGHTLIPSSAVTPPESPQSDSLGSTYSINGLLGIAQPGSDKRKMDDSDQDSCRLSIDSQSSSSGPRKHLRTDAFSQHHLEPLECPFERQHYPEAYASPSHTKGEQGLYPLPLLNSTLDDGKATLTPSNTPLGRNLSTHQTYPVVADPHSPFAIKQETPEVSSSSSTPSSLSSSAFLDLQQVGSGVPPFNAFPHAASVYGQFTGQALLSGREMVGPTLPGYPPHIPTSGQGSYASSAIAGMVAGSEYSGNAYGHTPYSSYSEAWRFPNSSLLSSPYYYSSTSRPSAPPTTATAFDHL
Chain of Cytochrome P450 2C9 (P11712 whole entry): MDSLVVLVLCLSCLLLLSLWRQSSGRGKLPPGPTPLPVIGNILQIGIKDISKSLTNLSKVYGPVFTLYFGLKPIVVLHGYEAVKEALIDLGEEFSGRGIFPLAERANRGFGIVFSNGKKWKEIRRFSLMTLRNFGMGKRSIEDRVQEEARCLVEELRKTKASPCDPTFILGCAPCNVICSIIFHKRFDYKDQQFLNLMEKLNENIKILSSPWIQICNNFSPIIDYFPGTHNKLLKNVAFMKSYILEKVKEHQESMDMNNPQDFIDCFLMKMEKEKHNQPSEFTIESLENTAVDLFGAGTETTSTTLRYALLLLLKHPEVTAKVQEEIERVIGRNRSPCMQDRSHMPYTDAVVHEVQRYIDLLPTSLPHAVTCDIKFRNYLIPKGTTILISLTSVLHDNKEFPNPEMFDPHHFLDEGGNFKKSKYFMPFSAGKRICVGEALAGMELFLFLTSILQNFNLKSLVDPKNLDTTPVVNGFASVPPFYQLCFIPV
Chain of FAD-linked sulfhydryl oxidase ALR (P55789 whole entry): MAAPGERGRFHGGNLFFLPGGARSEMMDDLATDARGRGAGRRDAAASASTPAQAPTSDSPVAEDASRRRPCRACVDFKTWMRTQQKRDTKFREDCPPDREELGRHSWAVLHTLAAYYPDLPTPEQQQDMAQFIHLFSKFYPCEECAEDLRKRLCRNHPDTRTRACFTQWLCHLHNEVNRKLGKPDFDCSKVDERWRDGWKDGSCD

Compound: O=S(=O)(c1ccc(NC(=S)NN=C2CCCCC2)cc1)N1CCOCC1
- IC50 (Nonstructural protein 1): 24.8 µM (active)

Compound: Cc1ccc(-c2noc(CCC(=O)Nc3cccc(C#N)c3)n2)cc1
- EC50 [1]: 2.84 µM (active)
- IC50 (cells): 19.9 µM (active)

Compound: C=CCc1cc(C)ccc1OCC(O)CN1CCN(c2ccccc2)CC1 (centres undefined)
- EC50 [1]: 8.33 µM (active)

Compound: Cc1ccccc1-n1nc2c(c1NC(=O)c1ccc(Br)o1)CSC2
- EC50 [1]: 5.29 µM (active)

Compound: Cc1nc2cnc(N(C)C)nc2n(Cc2ccc(F)cc2)c1=O
- AC50 (Cytochrome P450 2C9): inconclusive

Compound: COc1ccc(C(c2nnnn2Cc2ccc(F)cc2)N2CCN(c3ccccc3)CC2)cc1 (centres undefined)
- EC50 [1]: 2.66 µM (active)

Compound: CN(C)c1ccc(C(=O)Nc2nc3c(s2)CCCC3)cc1
- AC50 [2]: 0.188 µM (active)
- AC50 [3]: 51.1 µM (active)
- AC50 [4]: 8.81 µM (active)
- AC50 [5]: 11.4 µM (active)

Compound: Cc1ccc(S(=O)(=O)N(CC(=O)N2CCN(c3ccc(F)cc3)CC2)C2CCCCC2)cc1
- EC50 [1]: 4.33 µM (active)

Compound: CCOc1ccccc1NC1=C(Cl)C(=O)N(Cc2ccccc2)C1=O
- EC50 (BJ [6]): > 150 µM (not active)
- EC50 (BJ [7]): > 150 µM (not active)
- EC50 (BJ [8]): > 150 µM (not active)
- EC50 [9]: > 150 µM (not active)

Compound: Clc1ccc(CSc2nnnn2-c2ccc3c(c2)OCO3)c(Cl)c1
- EC50 [1]: 9.79 µM (active)
- AC50 [10]: 13.1 µM (active)

Compound: CCc1nc(Sc2nnnn2-c2ccccc2)c2c3c(sc2n1)CCCC3
- AC50 [4]: 5.1 µM (active)
- AC50 [5]: 5.14 µM (active)

Compound: Cc1cccc(NC(=O)CN2C(=O)N/C(=C/c3ccc(-c4cccc(C(=O)O)c4C)o3)C2=O)c1
- AC50 [11]: 72.3 µM (active)

Compound: COCCOC(=O)c1[nH]c2c(c1C)C(=O)CC(c1cccs1)C2 (centres undefined)
- EC50 (BJ [6]): 4.56 µM (active)
- EC50 (BJ [7]): 66.4 µM (active)
- EC50 (BJ [8]): 3.8 µM (active)
- EC50 [9]: 12.9 µM (active)

Compound: CCOC(=O)[C@@H]1[C@H]2COc3cc(OC)ccc3[C@H]2N2C(=O)N(c3cccc(F)c3)C(=O)[C@@]12C
- AC50 [12]: 35.2 µM (active)

Compound: c1ccc(COc2cccc(-c3cc4nc(NCCCn5ccnc5)ccn4n3)c2)cc1
- AC50 [13]: 40 µM (active)
- AC50 [3]: > 52 µM (inactive)

Compound: CC(=O)Nc1ccc(S(=O)(=O)c2ccnc3cc(Cl)ccc23)cc1
- AC50 (Paired box protein Pax-8): 0.449 µM (active)
- AC50 [13]: 26.9 µM (active)
- AC50 [4]: 66.3 µM (active)

Compound: CCCC[S+]([O-])CC(CO)NC(=O)/C=C/c1c(C)[nH]c(=O)[nH]c1=O (centres undefined)
- GI50 (P388/ADR): 1.5 µM (inactive)
- GI50 (SN12K1): 6.01 µM (inactive)
- GI50 (P388): 1.58 µM (inactive)

Compound: N/C(=N\O)N/N=C\c1ccc(O)c(O)c1O
- GI50 (P388/ADR): 8.65 µM (inactive)
- GI50 (SN12K1): 17.7 µM (inactive)
- GI50 (P388): 14.4 µM (inactive)

Compound: S=c1sc2c(s1)SC(c1ccccc1)CS2 (centres undefined)
- GI50 (P388/ADR): 44.6 µM (inactive)
- GI50 (SN12K1): > 89.5 µM (inactive)
- GI50 (P388): 9.86 µM (inactive)

Compound: COc1cc(/N=N\c2cccc(S(=O)(=O)O)c2)ccc1/N=N\c1ccc(/C=C/c2ccc(-n3on3-c3ccc(/C=C/c4ccc(/N=N/c5ccc(/N=N\c6cccc(S(=O)(=O)O)c6)cc5OC)cc4S(=O)(=O)O)c(S(=O)(=O)O)c3)cc2S(=O)(=O)O)c(S(=O)(=O)O)c1
- GI50 (P388/ADR): > 100 µM (inactive)
- GI50 (SN12K1): > 100 µM (inactive)
- GI50 (P388): > 100 µM (inactive)

Compound: COC(=O)C[C@H]1C=C[C@H](NC(=O)c2ccccn2)[C@@H](CO)O1
- AC50 [14]: 0.414 µM (active)

Compound: COc1cc(C2c3cc4c(cc3[C@@H](Nc3ccc(Oc5ccccc5)cc3)C3COC(=O)[C@H]23)OCO4)cc(OC)c1O (some centres undefined)
- GI50 (P388/ADR): 0.407 µM (active)
- GI50 (SN12K1): 0.935 µM (active)
- GI50 (P388): 0.0504 µM (active)

Compound: CCOc1cccc(/C=N/N2C(=O)CSC2=S)c1O
- IC50 (Nonstructural protein 1): 1.83 µM (active)

Compound: Cc1c2ccncc2c(C)c2c1[nH]c1ccc(Cl)cc12
- GI50 (P388/ADR): 1.83 µM (inactive)
- GI50 (SN12K1): 2.94 µM (inactive)
- GI50 (P388): 1.63 µM (inactive)

Compound: CC(CN1CC(=O)NC(=O)C1)N1CC(=O)NC(=O)C1 (centres undefined) [RAZOXANE]
- GI50 (P388/ADR): 141 µM (inactive)
- GI50 (SN12K1): 58.1 µM (inactive)
- GI50 (P388): 1.85 µM (inactive)

— ChEMBL document CHEMBL1201862, “PubChem BioAssay data set” (2004)
